Assay [1] is described as follows: Inhibition of CXCR2-mediated chemotaxis in mouse BAF3 cells.
A short description of assay [2]: Antagonist activity at CXCR2 in human neutrophils assessed as reduction in GRO-alpha mediated chemotaxis.

As for `CC[C@@H](Nc1c(Nc2cccc(C(=O)N3CCN4CCC[C@H]4C3)c2O)c(=O)c1=O)c1ccc(C)o1`, half-maximal inhibition in assay [1] (IC50) required 0.0001 µM. As for `COC(=O)CSc1ccc(C(=O)Nc2ccc(F)cc2)cn1` [[5-(4-Fluoro-phenylcarbamoyl)-pyridin-2-ylsulfanyl]-acetic acid methyl ester], the IC50 (commonly the midpoint of a concentration-inhibition curve) in assay [2] worked out at 0.042 µM.

(Values after BindingDB's records for doi:10.1016/j.ejmech.2019.111853 (Hangzhou Institute of Innovative Medicine, 2020).)
